pEC50: −log10 of the molar value.
Experiments:
[1] = molecular target: SNAP-mGluR2/SNAP-mGluR2 homodimer (mGluR2/2) (Rattus norvegicus, UniProt P31421); assay: Live-cell ensemble FRET of SNAP-mGluR2/2 homodimer in HEK293T cells; format: cell-based; design: HA (N); made in house; host or cells: HEK293T; details: for normalized FRET response (Figure 3c titration), AVG: left block
Description: After labeling, cells were mounted on an upright, scanning confocal microscope (Zeiss LSM 780) and imaged with a 20X objective. […] Clusters of cells were analyzed together and FRET was calculated as FRET = (IA)/(ID + IA), in which ID is the fluorescence donor intensity and IA is the fluorescence acceptor intensity. […] Fitting of dose–response curves was performed using Prism (Graphpad). […] Drugs were delivered with a gravity-driven perfusion system.

[2] = molecular target: T1, CLIP-mGluR2/SNAP-mGluR2(YADA) dimer (Rattus norvegicus, UniProt P31421, D295A/Y216A); assay: smFRET on CLIP-mGluR2/SNAP-mGluR2(YADA) dimers; format: biochemical; details: for mGluR2/2(YADA) Histogram area: Figure 4c
T1 construct: Flag (N); HA (N); made in house; host or cells: HEK293T
T1 sequence (P31421 19-872, stated change not applied): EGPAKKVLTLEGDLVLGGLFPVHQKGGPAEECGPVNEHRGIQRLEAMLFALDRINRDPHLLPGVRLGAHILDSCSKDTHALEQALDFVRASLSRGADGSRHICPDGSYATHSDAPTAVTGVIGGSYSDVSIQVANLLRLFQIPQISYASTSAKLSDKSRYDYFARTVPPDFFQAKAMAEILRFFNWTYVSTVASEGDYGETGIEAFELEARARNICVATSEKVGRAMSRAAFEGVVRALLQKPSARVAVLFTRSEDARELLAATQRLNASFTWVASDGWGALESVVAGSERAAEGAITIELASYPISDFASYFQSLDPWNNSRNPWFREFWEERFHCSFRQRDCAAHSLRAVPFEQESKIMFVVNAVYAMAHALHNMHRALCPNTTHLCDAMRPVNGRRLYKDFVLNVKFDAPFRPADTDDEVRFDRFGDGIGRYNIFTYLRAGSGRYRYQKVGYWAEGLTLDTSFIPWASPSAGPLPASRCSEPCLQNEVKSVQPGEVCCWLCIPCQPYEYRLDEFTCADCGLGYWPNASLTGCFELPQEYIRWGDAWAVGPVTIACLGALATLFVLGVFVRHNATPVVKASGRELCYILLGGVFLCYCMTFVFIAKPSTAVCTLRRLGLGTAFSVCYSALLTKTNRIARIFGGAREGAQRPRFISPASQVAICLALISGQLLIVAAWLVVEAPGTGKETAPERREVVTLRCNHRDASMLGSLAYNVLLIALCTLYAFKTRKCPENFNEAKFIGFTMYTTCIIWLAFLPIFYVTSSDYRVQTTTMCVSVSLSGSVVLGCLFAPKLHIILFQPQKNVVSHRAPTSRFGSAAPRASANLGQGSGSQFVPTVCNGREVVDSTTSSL
T1 sequence (P31421 19-872 Y216A/D295A): as the sequence (P31421 19-872, stated change not applied) above, with Y198A, D277A counted along it
From the text: To examine this, we tested the behavior of a heterodimer that co-assembles a wild-type mGluR2 with a binding site mutant version of mGluR2, mGluR2 (Y216A and D295A; known as the YADA mutant). […] We co-expressed CLIP-mGluR2 and SNAP-mGluR2(YADA) and labeled with the SNAP-selective acceptor dye BG-Alexa-647 and the CLIP-selective donor dye BC-DY-547. […] These findings indicate that closure of a single wild-type mGluR2 subunit is much more efficient in activating the receptor when partnered in the dimer with an mGluR7 than with another mGluR2.
(§1) (100 ms time resolution).

[3] = molecular target: SNAP-mGluR7/SNAP-mGluR7 homodimer (mGluR7/7) (Rattus norvegicus, UniProt P35400); assay: smFRET on isolated immune-purified SNAP-mGluR7/7 dimers; details: read-out: EC50 of low FRET peak concentration-response (apparent affinity); smFRET, isolated receptor
Sequence of SNAP-mGluR7/SNAP-mGluR7 homodimer (mGluR7/7) (P35400 35-915): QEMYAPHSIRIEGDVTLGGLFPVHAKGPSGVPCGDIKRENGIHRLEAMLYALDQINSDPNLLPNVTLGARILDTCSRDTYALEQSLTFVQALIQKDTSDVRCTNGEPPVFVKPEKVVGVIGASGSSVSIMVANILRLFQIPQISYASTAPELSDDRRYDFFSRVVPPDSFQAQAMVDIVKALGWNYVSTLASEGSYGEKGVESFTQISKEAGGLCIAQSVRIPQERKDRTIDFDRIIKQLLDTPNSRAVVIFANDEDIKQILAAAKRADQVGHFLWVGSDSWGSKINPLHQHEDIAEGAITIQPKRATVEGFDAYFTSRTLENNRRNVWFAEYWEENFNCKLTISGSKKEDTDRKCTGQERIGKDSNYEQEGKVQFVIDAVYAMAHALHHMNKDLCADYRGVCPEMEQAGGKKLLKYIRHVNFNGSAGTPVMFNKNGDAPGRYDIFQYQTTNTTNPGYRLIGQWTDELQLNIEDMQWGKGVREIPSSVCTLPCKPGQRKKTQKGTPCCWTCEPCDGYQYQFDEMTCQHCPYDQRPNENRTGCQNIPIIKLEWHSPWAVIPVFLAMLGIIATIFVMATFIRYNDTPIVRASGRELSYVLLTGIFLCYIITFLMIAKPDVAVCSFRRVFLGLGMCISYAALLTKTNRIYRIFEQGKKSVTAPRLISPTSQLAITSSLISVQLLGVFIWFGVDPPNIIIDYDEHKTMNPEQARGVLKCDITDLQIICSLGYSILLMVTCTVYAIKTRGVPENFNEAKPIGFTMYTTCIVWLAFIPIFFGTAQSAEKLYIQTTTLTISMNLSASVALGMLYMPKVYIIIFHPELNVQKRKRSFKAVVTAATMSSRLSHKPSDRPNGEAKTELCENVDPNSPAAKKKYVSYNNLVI

mGluR7(K319C) = molecular target: T2, mGluR7(K319C) (Rattus norvegicus, UniProt P35400, K319C); format: cell-based; details: vs wild-type mGluR7
T2 construct: expressed in transfected cells; host or cells: HEK293 / HEK293T
T2 sequence (P35400 35-915 K319C): as the sequence (P35400 35-915) above, with K285C counted along it
From the text: Illumination was applied to the entire field of view using either a Polychrome V monochromator (TILL Photonics) through a 20× objective, or a Lambda DG4 high-speed wavelength switcher (Sutter Instruments) with 380 nm and 500 nm filters through a 40× objective. pClamp software was used for both data acquisition and control of illumination.

[4] = molecular target: T3, CLIP-mGluR3/SNAP-mGluR7 heterodimer (mGluR3/7) (Rattus norvegicus, UniProt P31422+P35400); assay: smFRET on CLIP-mGluR3/SNAP-mGluR7 heterodimers; format: biochemical; details: for smFRET histogram value: 10uM Glu
T3 construct: Flag (N); HA (N); made in house; host or cells: HEK293T
T3 sequence (P31422 23-879): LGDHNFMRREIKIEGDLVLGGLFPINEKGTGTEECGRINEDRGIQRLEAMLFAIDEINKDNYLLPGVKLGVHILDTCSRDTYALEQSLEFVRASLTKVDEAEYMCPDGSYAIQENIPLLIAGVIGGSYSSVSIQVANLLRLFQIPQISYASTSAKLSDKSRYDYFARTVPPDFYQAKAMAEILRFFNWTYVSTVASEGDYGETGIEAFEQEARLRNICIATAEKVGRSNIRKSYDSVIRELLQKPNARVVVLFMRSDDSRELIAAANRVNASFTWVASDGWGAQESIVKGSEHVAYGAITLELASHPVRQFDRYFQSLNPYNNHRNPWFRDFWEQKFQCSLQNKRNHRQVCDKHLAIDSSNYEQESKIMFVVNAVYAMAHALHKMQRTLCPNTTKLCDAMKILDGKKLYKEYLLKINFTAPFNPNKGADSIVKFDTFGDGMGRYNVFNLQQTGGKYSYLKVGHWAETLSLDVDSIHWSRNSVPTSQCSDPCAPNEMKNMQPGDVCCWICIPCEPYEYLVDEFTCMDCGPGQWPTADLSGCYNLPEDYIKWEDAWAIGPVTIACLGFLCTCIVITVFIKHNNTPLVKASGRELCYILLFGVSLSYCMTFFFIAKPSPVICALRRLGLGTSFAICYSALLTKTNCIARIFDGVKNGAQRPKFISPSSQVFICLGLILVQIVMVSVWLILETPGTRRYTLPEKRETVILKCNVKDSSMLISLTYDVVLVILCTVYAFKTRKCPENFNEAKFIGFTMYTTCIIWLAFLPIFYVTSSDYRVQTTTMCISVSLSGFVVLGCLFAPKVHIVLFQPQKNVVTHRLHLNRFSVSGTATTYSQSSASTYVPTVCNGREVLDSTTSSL
T3 sequence (P35400 35-915): as the sequence (P35400 35-915) above
Description: Samples were prepared in the same manner as for mGluR2/7 heterodimers and imaged in smFRET.
as §1

mGluR5(YADA) homodimer = details: 10 mM glutamate ref 46; cited from earlier work
mGluR5/mGluR5(YADA) = details: cited from earlier work

Sequence of SNAP-mGluR2/SNAP-mGluR2 homodimer (mGluR2/2) (P31421 19-872): as the sequence (P31421 19-872, stated change not applied) above

Q: With `N[C@@H](CCC(=O)O)C(=O)O` [glutamate] as the molecule, how does the “fractional change in FRET (Figure 1c), Average” value ([1]; 1 mM glutamate, live cells) read?
A: 0.0345

Q: What about the “normalized FRET response (Figure 3c titration), AVG” value (“normalized FRET response” for short) ([1]; Glu 1uM, normalized to 10 mM) of the same molecule?
A: 0.02436

Q: And the “normalized FRET response” value ([1]; Glu 5uM)?
A: 0.1119

Q: And the “normalized FRET response” value ([1]; Glu 10uM)?
A: 0.2744

Q: What about the “normalized FRET response” value ([1]; Glu 20uM) of the same molecule?
A: 0.534

Q: What about the “normalized FRET response” value ([1]; Glu 50uM) of the same molecule?
A: 0.7966

Q: What about the “normalized FRET response” value ([1]; Glu 100uM) of the same molecule?
A: 0.8891

Q: And the “normalized FRET response” value ([1]; Glu 200uM)?
A: 0.9536

Q: What about the “normalized FRET response” value ([1]; Glu 500uM) of the same molecule?
A: 0.9786

Q: What about the “normalized FRET response” value ([1]; Glu 1mM) of the same molecule?
A: 0.9832

Q: What about the “normalized FRET response” value ([1]; Glu 10mM (normalization point)) of the same molecule?
A: 1

Q: What about the “mGluR2/2(YADA) Histogram area” value ([2]; Glu 1e-6) of the same molecule?
A: 0.0005

Q: And the “mGluR2/2(YADA) Histogram area” value ([2]; Glu 3e-6)?
A: 0.0013

Q: What about the “mGluR2/2(YADA) Histogram area” value ([2]; Glu 1e-5) of the same molecule?
A: 0.00167

Q: What about the “mGluR2/2(YADA) Histogram area” value ([2]; Glu 3e-5) of the same molecule?
A: 0.00171

Q: What about the “mGluR2/2(YADA) Histogram area” value ([2]; Glu 0.0001) of the same molecule?
A: 0.00339

Q: And the “mGluR2/2(YADA) Histogram area” value ([2]; Glu 0.0003)?
A: 0.00443

Q: What about the “mGluR2/2(YADA) Histogram area” value ([2]; Glu 0.001) of the same molecule?
A: 0.00578

Q: And the “mGluR2/2(YADA) Histogram area” value ([2]; Glu 0.01)?
A: 0.00605

Q: What about the “mGluR2/2(YADA) Histogram area” value ([2]; Glu 0.1) of the same molecule?
A: 0.00616

Q: And the “maximal occupancy of the low FRET activated conformation” value ([2]; high glutamate)?
A: ~ 30%

Q: What about the pEC50 [3] of the same molecule?
A: 1.42

Q: What about the “effect of K319C mutation on apparent affinity for glutamate (GIRK current)” value (mGluR7(K319C)) of the same molecule?
A: did not alter the apparent affinity

Q: And the smFRET histogram value ([4]; FRET bin 0)?
A: 5.12E-04

Q: What about the smFRET histogram value ([4]; FRET bin 0.02) of the same molecule?
A: 0.00118

Q: And the smFRET histogram value ([4]; FRET bin 0.04)?
A: 0.00527

Q: What about the smFRET histogram value ([4]; FRET bin 0.06) of the same molecule?
A: 0.01241

Q: And the smFRET histogram value ([4]; FRET bin 0.08)?
A: 0.03308

Q: What about the smFRET histogram value ([4]; FRET bin 0.1) of the same molecule?
A: 0.05942

Q: What about the smFRET histogram value ([4]; FRET bin 0.12) of the same molecule?
A: 0.08729

Q: And the smFRET histogram value ([4]; FRET bin 0.14)?
A: 0.111

Q: And the smFRET histogram value ([4]; FRET bin 0.16)?
A: 0.1262

Q: And the smFRET histogram value ([4]; FRET bin 0.18)?
A: 0.1233

Q: And the smFRET histogram value ([4]; FRET bin 0.2)?
A: 0.1027

Q: And the smFRET histogram value ([4]; FRET bin 0.22)?
A: 0.08729

Q: What about the smFRET histogram value ([4]; FRET bin 0.24) of the same molecule?
A: 0.06369

Q: What about the smFRET histogram value ([4]; FRET bin 0.26) of the same molecule?
A: 0.04632

Q: And the smFRET histogram value ([4]; FRET bin 0.28)?
A: 0.03089

Q: What about the smFRET histogram value ([4]; FRET bin 0.3) of the same molecule?
A: 0.01963

Q: And the smFRET histogram value ([4]; FRET bin 0.32)?
A: 0.01469

Q: And the smFRET histogram value ([4]; FRET bin 0.34)?
A: 0.01371

Q: What about the smFRET histogram value ([4]; FRET bin 0.36) of the same molecule?
A: 0.01107

Q: And the smFRET histogram value ([4]; FRET bin 0.38)?
A: 0.01037

Q: And the smFRET histogram value ([4]; FRET bin 0.4)?
A: 0.00851

Q: What about the smFRET histogram value ([4]; FRET bin 0.42) of the same molecule?
A: 0.00558

Q: What about the smFRET histogram value ([4]; FRET bin 0.44) of the same molecule?
A: 0.00425

Q: What about the smFRET histogram value ([4]; FRET bin 0.46) of the same molecule?
A: 0.00239

Q: And the smFRET histogram value ([4]; FRET bin 0.48)?
A: 0.00285

Q: And the smFRET histogram value ([4]; FRET bin 0.5)?
A: 0.00309

Q: And the smFRET histogram value ([4]; FRET bin 0.52)?
A: 0.00461

Q: What about the smFRET histogram value ([4]; FRET bin 0.54) of the same molecule?
A: 0.00369

Q: And the smFRET histogram value ([4]; FRET bin 0.56)?
A: 0.00265

Q: What about the smFRET histogram value ([4]; FRET bin 0.58) of the same molecule?
A: 0.00122

Q: And the smFRET histogram value ([4]; FRET bin 0.6)?
A: 7.52E-04

Q: What about the smFRET histogram value ([4]; FRET bin 0.62) of the same molecule?
A: 8.08E-05

Q: And the smFRET histogram value ([4]; FRET bin 0.64)?
A: 4.04E-05

Q: And the smFRET histogram value ([4]; FRET bin 0.66)?
A: 1.92E-05

Q: And the smFRET histogram value ([4]; FRET bin 0.68)?
A: 1.92E-05

Q: And the smFRET histogram value ([4]; FRET bin 0.7)?
A: 6.75E-05

Q: And the smFRET histogram value ([4]; FRET bin 0.72)?
A: 4.04E-05

Q: What about the smFRET histogram value ([4]; FRET bin 0.74) of the same molecule?
A: 7.95E-06

Q: What about the smFRET histogram value ([4]; FRET bin 0.76) of the same molecule?
A: 1.62E-04

Q: And the smFRET histogram value ([4]; FRET bin 0.78)?
A: 4.04E-05

Q: And the smFRET histogram value ([4]; FRET bin 0.8)?
A: 0

Q: And the smFRET histogram value ([4]; FRET bin 0.82)?
A: 0

Q: What about the smFRET histogram value ([4]; FRET bin 0.84) of the same molecule?
A: 0

Q: What about the smFRET histogram value ([4]; FRET bin 0.86) of the same molecule?
A: 0

Q: And the smFRET histogram value ([4]; FRET bin 0.88)?
A: 0

Q: What about the smFRET histogram value ([4]; FRET bin 0.9) of the same molecule?
A: 0

Q: What about the smFRET histogram value ([4]; FRET bin 0.92) of the same molecule?
A: 0

Q: What about the smFRET histogram value ([4]; FRET bin 0.94) of the same molecule?
A: 0

Q: What about the smFRET histogram value ([4]; FRET bin 0.96) of the same molecule?
A: 0

Q: And the smFRET histogram value ([4]; FRET bin 0.98)?
A: 0

Q: What about the smFRET histogram value ([4]; FRET bin 1) of the same molecule?
A: 0

Q: What about the active state occupancy ([4]; 10 μM glutamate) of the same molecule?
A: ~ 95%

Q: And the activation by glutamate (mGluR5(YADA) homodimer)?
A: not be activated

Q: What about the “first low glutamate concentration component, share of maximal activation” value (mGluR5/mGluR5(YADA)) of the same molecule?
A: ~ 20%

Source: PMC6895203, “Conformational pathway provides unique sensitivity to a synaptic mGluR” (Nature Communications, 2019)
